≈ marks a conversion by molar mass, not a printed value. Where “and” joins values, the source holds several entries; their conditions need not be identical. Identical values can stand only once. One block for each compound: values may come before it.
What was measured:
Assay in all cases: ≥ marks a high value that may be exact or a test limit, other limits are often not marked, values filed in µg/mL are converted to µM
[1] = tested on: Staphylococcus aureus ATCC 25923
[2] = tested on: Pseudomonas aeruginosa ATCC 27853
[3] = tested on: Staphylococcus aureus ATCC 43300
[4] = tested on: Staphylococcus epidermidis ATCC 12228
[5] = tested on: Escherichia coli K88
[6] = tested on: Salmonella enterica subsp. enterica serovar Pullorum ATCC 7913
[7] = tested on: Salmonella enterica subsp. enterica serovar Typhimurium C77-31
[8] = tested on: Candida parapsilosis CGMCC 2.3989
[9] = tested on: Escherichia coli 078
[10] = tested on: Candida tropicalis CGMCC 2.1975
[11] = tested on: Escherichia coli UB1005
[12] = tested on: Escherichia coli K99
[13] = tested on: Salmonella enterica subsp. enterica serovar Typhimurium ATCC 14028
[14] = tested on: Lacticaseibacillus rhamnosus 1.0911
[15] = tested on: Lacticaseibacillus rhamnosus 8014
[16] = tested on: Lacticaseibacillus rhamnosus 1.9021
[17] = tested on: Staphylococcus aureus ATCC 29213
[18] = tested on: Escherichia coli ATCC 25922
[19] = tested on: Streptococcus agalactiae BNCC 185941
[20] = tested on: Salmonella enterica subsp. enterica serovar Pullorum C79-13
[21] = tested on: Salmonella enterica subsp. enterica serovar Choleraesuis CVCC 503
[22] = tested on: Lacticaseibacillus rhamnosus 1.0936
[23] = tested on: Escherichia coli O157:H7 CICC 21530
[24] = tested on: Pseudomonas aeruginosa PAO1
[25] = tested on: Acinetobacter baumannii CR17
[26] = tested on: Pseudomonas aeruginosa ATCC 15442
[27] = tested on: Staphylococcus aureus ATCC 6538
[28] = tested on: Staphylococcus epidermidis
[29] = tested on: Enterobacter cloacae ATCC 23355
[30] = tested on: Bacillus subtilis CCT 2471
[31] = tested on: Staphylococcus saprophyticus
[32] = tested on: Escherichia coli CCT 1371
[33] = tested on: Legionella pneumophila Lens
[34] = tested on: Micrococcus luteus
[35] = tested on: Vibrio harveyi
[36] = tested on: Escherichia coli
[37] = tested on: Vibrio parahaemolyticus
[38] = tested on: Vibrio campbellii
[39] = tested on: Vibrio alginolyticus

MIC [1]: 8 µM (≈ 11.7 µg/mL)
MIC [2]: 8 µM (≈ 11.7 µg/mL)
MIC [3]: 8 µM (≈ 11.7 µg/mL)
MIC [4]: 4 µM (≈ 5.83 µg/mL)
MIC [5]: 4 µM (≈ 5.83 µg/mL)
MIC [6]: 4 µM (≈ 5.83 µg/mL)
MIC [7]: 4 µM (≈ 5.83 µg/mL)
MIC [8]: 8 µM (≈ 11.7 µg/mL)
MIC [9]: 4 µM (≈ 5.83 µg/mL)
MIC [10]: 4 µM (≈ 5.83 µg/mL)
MIC [11]: 4 µM (≈ 5.83 µg/mL)
MIC [12]: 4 µM (≈ 5.83 µg/mL)
MIC [13]: 4 µM (≈ 5.83 µg/mL)
SMILES: CC[C@H](C)[C@H](NC(=O)[C@H](Cc1c[nH]c2ccccc12)NC(=O)[C@H](CCCN=C(N)N)NC(=O)[C@H](CC(C)C)NC(=O)[C@@H](NC(=O)[C@H](CCCN=C(N)N)NC(=O)[C@H](CCCN=C(N)N)NC(=O)[C@H](C)NC(=O)[C@H](C)N)[C@@H](C)CC)C(=O)N[C@@H](Cc1ccccc1)C(=O)N[C@@H](CCCN=C(N)N)C(N)=O [AARRILRWIFR]

MIC [14]: 16 µM (≈ 20.5 µg/mL)
MIC [15]: 16 µM (≈ 20.5 µg/mL)
MIC [2]: 4 µM (≈ 5.13 µg/mL)
MIC [3]: 16 µM (≈ 20.5 µg/mL)
MIC [4]: 64 µM (≈ 82.1 µg/mL)
MIC [5]: 2 µM (≈ 2.57 µg/mL)
MIC [16]: ≥ 32 µM
MIC [17]: 16 µM (≈ 20.5 µg/mL)
MIC [18]: 8 µM and 16 µM
MIC [19]: ≥ 128 µM
MIC [20]: 8 µM (≈ 10.3 µg/mL)
MIC [22]: ≥ 64 µM
MIC [23]: 4 µM (≈ 5.13 µg/mL)
MIC [24]: 16 µM (≈ 20.5 µg/mL)
MIC [13]: 16 µM (≈ 20.5 µg/mL)
SMILES: CC[C@H](C)[C@H](NC(=O)CNC(=O)[C@@H](NC(=O)[C@H](Cc1c[nH]c2ccccc12)NC(=O)[C@@H](NC(=O)CNC(=O)[C@@H](NC(=O)[C@H](CCCCN)NC(=O)[C@@H](N)CCCCN)[C@@H](C)CC)[C@@H](C)CC)[C@@H](C)CC)C(=O)N[C@@H](CCCCN)C(=O)N[C@@H](CCCCN)C(N)=O [KKIGIWIGIKK]
MIC [21]: 8 µM (≈ 10.3 µg/mL)

MIC [25]: ≥ 173 µM
SMILES: CC[C@H](C)[C@H](NC(=O)[C@H](CC(N)=O)NC(=O)[C@H](CC(C)C)NC(=O)[C@H](CCCCN)NC(=O)[C@H](C)NC(=O)[C@H](CC(C)C)NC(=O)[C@H](C)NC(=O)[C@H](C)NC(=O)[C@H](CC(C)C)NC(=O)[C@H](C)NC(=O)[C@H](CCCCN)NC(=O)[C@H](CCCCN)NC(=O)[C@@H](NC(=O)[C@@H](N)CC(C)C)[C@@H](C)CC)C(N)=O [LIKKALAALAKLNI]

MIC [1]: 3 µM (≈ 4.39 µg/mL)
MIC [26]: ≥ 34 µM
MIC [27]: 17 µM (≈ 24.9 µg/mL)
MIC [28]: ≥ 34 µM
MIC [18]: 3 µM (≈ 4.39 µg/mL)
MIC [29]: ≥ 34 µM
MIC [30]: ≥ 68 µM
MIC [31]: 3 µM (≈ 4.39 µg/mL)
MIC [32]: ≥ 34 µM
SMILES: CC[C@H](C)[C@H](NC(=O)[C@H](C)NC(=O)CNC(=O)[C@H](CC(C)C)NC(=O)[C@@H](NC(=O)[C@H](CCCCN)NC(=O)[C@H](CCCCN)NC(=O)[C@@H](NC(=O)[C@@H](NC(=O)CNC(=O)[C@H](CC(C)C)NC(=O)[C@H](CC(C)C)NC(=O)[C@H](CCCCN)NC(=O)[C@@H](N)CC(C)C)[C@@H](C)CC)C(C)C)C(C)C)C(N)=O [LKLLGIVKKVLGAI]

MIC [33]: 1.25 µM (≈ 3.14 µg/mL)
SMILES: CC[C@H](C)[C@H](NC(=O)[C@H](Cc1ccccc1)NC(=O)[C@H](CC(=O)O)NC(=O)[C@H](C)NC(=O)[C@@H](N)CCSC)C(=O)N[C@@H](C)C(=O)N[C@@H](CCCCN)C(=O)N[C@H](C(=O)N[C@H](C(=O)N[C@@H](CCC(=O)O)C(=O)N[C@H](C(=O)N[C@H](C(=O)N[C@@H](CCCCN)C(=O)NCC(=O)N[C@@H](CC(C)C)C(=O)N[C@H](C(=O)N[C@@H](CC(=O)O)C(=O)N[C@@H](CCC(N)=O)C(=O)N[C@@H](Cc1ccccc1)C(=O)N[C@H](C(=O)N[C@@H](CCC(N)=O)C(=O)N[C@@H](CCCCN)C(=O)O)[C@@H](C)O)[C@@H](C)CC)C(C)C)[C@@H](C)CC)C(C)C)[C@@H](C)CC [MADFIAKIVEIVKGLIDQFTQK]

MIC [34]: ≥ 64 µM
MIC [35]: ≥ 64 µM
MIC [28]: ≥ 64 µM
MIC [36]: > 64 µM
MIC [38]: ≥ 64 µM
MIC [39]: ≥ 64 µM
SMILES: CC[C@H](C)[C@H](NC(=O)[C@H](Cc1ccccc1)NC(=O)[C@H](Cc1ccc(O)cc1)NC(=O)[C@@H]1CCCN1C(=O)[C@H](CCCN=C(N)N)NC(=O)[C@@H](NC(=O)[C@H](CO)NC(=O)[C@H](Cc1ccc(O)cc1)NC(=O)[C@H](CO)NC(=O)[C@H](CS)NC(=O)[C@H](Cc1ccc(O)cc1)NC(C)=O)[C@@H](C)O)C(=O)N[C@@H](CCCN=C(N)N)C(=O)N[C@@H](Cc1c[nH]c2ccccc12)C(=O)N[C@@H](CCC(N)=O)C(=O)N[C@@H](CC(C)C)C(=O)N[C@@H](CCCCN)C(=O)N[C@@H](Cc1ccccc1)C(=O)N[C@@H](CCCCN)C(=O)N[C@H](C(=O)N[C@@H](CCCCN)C(=O)N[C@H](C(=O)N[C@@H](Cc1c[nH]c2ccccc12)C(=O)N[C@@H](CS)C(=O)N1CCC[C@H]1C(N)=O)[C@@H](C)CC)[C@@H](C)O [YCSYSTRPYFIRWQLKFKTKIWCP]
MIC [37]: ≥ 64 µM
